Here are results for 3 compounds from US20220175777A1, “Inhibitors of Multidrug Resistance Transporter P-Glycoprotein” (Southern Methodist University, priority 2014, published 2022).

The subject of data set [1] is DU145TXR. Kind of data set: Potentiation of 500 nM paclitaxel cytotoxicity (MTT). In kind it is cell-based, human. The note with it: 50 nM-25 μM inhibitor with 500 nM paclitaxel. How it is done:
FIGS. 4A and 4B show the in silico identified P-gp inhibitors potentiate the cytotoxic effects of paclitaxel in the MDR human prostate cancer cell line DU145TxR. […] Values represent the mean±SEM of at least two separate experiments performed in triplicate.
A range of experimental inhibitor concentrations was added in the presence of 500 nM paclitaxel and the cell viability was assessed using the MTT assay.
In order to compare the efficacy of inhibitors, the potentiation concentration of inhibitor resulting in 50% reduction in cell viability, PC50, in the presence of 500 nM paclitaxel was calculated from the data in FIG. 4A.

Data set [2] deals with DU145TXR. Description: Dose dependent sensitization of MDR cell line to paclitaxel (MTT). Type of data set: cell-based, human. The note with it: 5 μM and 10 μM compound. How it is done: FIGS. 6A to 6C show the dose dependent sensitization of MDR prostate cancer cell line DU145TxR. […] For reference, the DU145TxR (closed circle) and DU145 (open circle) incubated with paclitaxel only are also included. Values are mean±SEM from at least 2 separate experiments performed in triplicate wells. The data were normalized to the intrinsic toxicities as determined in studies from FIGS. 5A to 5C of each of the compounds for each of the corresponding concentrations.
Dose Dependent Sensitization of MDR Prostate Cancer Cell Line: To determine the degree to which the MDR prostate cancer cell line DU145TxR could be sensitized to paclitaxel the inventors determined cell survival at increasing concentrations of paclitaxel in the presence of three concentrations of P-gp inhibitors. FIGS. 6A, 6B and 6C show the survival of DU145TxR at increasing concentration of paclitaxel in the presence of 5 μM, 10 μM and 25 μM of the experimental compounds, respectively. The open circles represent the parental DU145 cell line in the presence of paclitaxel without addition of any inhibitor compound. The closed circles represent the survival of the multidrug resistant DU145TxR in the presence of paclitaxel alone. […] At that concentration over 10-fold increase in paclitaxel sensitivity in DU145TxR is observed compared to DU145TxR without P-gp inhibitors. Doubling the concentration of the compounds to 10 μM approximately doubled the DU145TxR sensitivity to paclitaxel.

Data set [3] concerns the target T1, Cysteineless Mouse MDR3 P-glycoprotein (Mus musculus, UniProt P21447, C1070A/C1121A/C1223A/C133A/C427A/C638A/C669A/C713A/C952A).
T1 construct: made in house; host or cells: Pichia pastoris
Conditions: ESR data of Brewer et al. (2014); cited from earlier work.

Data set [4] relates to DU145TXR. Description: Resensitization of DU145TXR to paclitaxel by 29 variants (MTT cell viability). In kind it is cell-based, human. The note with it: for Fold vs PTX ÷ 29: compared to parental compound 29. The text has this: The Group 1 ChemGen/docking routine produced variants of P-gp inhibitor 29 resensitize a multidrug resistant, P-gp overexpressing prostate cancer cell line to paclitaxel. The mitochondrial reduction potential of cells is often used as an indicator for cell viability using MTT assays^40-42. Using these assays it was observed that the five Group 1 derivatives of 29 predicted through the ChemGen/docking routine and synthesized here, 216, 227, 231, 541 and 551, re-sensitized the P-gp overexpressing prostate cancer cell line, DU145TXR^33, to the chemotherapeutic, paclitaxel (FIG. 9, showing results of assays at concentrations of 3 μM, 5 μM, 7 μM, and 10 μM).
Cytotoxicity of the chemotherapeutic, paclitaxel (PTX) to P-gp overexpressing prostate cancer cells, DU145TXR, was determined in the absence and presence of the ChemGen designed 29-variants, 216, 227, 231, 541 and 551. For each experimental compound IC50 values of PTX alone or in the presence of inhibitors, fold improvement of PTX sensitivity in the presence of inhibitor, and fold improvement of PTX sensitivity by variants compared to parental compound 29 are given.

The target of data set [5] is T1, Cysteineless Mouse MDR3 P-glycoprotein. Kind of data set: ATP hydrolysis by purified P-glycoprotein, basal and verapamil-stimulated. The note with it: ± standard deviation. Type of data set: biochemical. An excerpt: The efficacy of molecules identified using in silico methods to function as potential inhibitors of P-glycoprotein was initially tested with regard to their capability to inhibit ATP hydrolysis by purified P-glycoprotein. For this purpose, a well-established activity assay for ATP hydrolyzing enzymes that uses the oxidation of NADH to NAD+ through coupling the reactions of pyruvate kinase and lactate dehydrogenase to the hydrolysis of ATP was adapted to medium throughput conditions on 96 well plates. […] In this set-up, the effects of potential small molecule inhibitors on the ATP hydrolysis activity of P-glycoprotein were tested in duplicate or triplicate and were repeated at least two times using different enzyme preparations.
The P-glycoprotein used in these assays was a close relative of the human P-glycoprotein that is found in mice. A mutant version of the mouse P-glycoprotein where all intrinsic cysteine amino acids had been replaced by alanine residues was recombinantly expressed in the yeast Pichia pastoris and used for these initial tests. […] Prior to testing the ATP-hydrolysis activity, P-glycoprotein was incubated with phosphatidyl choline for stabilization of the enzyme during the assay.
Different concentrations of the to-be-tested small molecules were added and pre-incubated at 37° C. The ATP hydrolysis reaction was then started by adding equal volume of double concentrated ATPase cocktail. The final ATP concentration in the reaction was 2 mM. The reaction was allowed to proceed for 20 minutes, the rate of ATP hydrolysis was calculated using the molar extinction coefficient of NADH, and the one-to-one relationship of ATP hydrolyzed and NADH oxidized.
Evaluation of mode of inhibition of P-glycoprotein by Group 1 and Group 2 variants of compound 29. To assess the mode of inhibition of P-gp by the novel variants of P-gp inhibitor 29, ATP hydrolysis by P-gp was evaluated in the presence or absence of the variants. […] Murine P-gp (MDR3) expressed in Pichia pastoris that had all naturally occurring cysteines replaced with alanine, was used^45, 46. It is widely assumed that the ATP hydrolytic rate of P-gp is stimulated in the presence of transport substrates when compared to ATP hydrolysis in the absence of transport substrates. Assays comparing these rates can therefore be useful not only in identifying inhibitors of P-gp catalyzed ATP hydrolysis, but also to potentially infer whether a compound might be a transport substrate if basal ATPase rates are stimulated by the addition of a compound.

For data set [6] the target is unchanged. Description: SL-ATP binding to P-gp by ESR spectroscopy. Conditions: SL-ATP titration in presence of compound. The text has this:
Determination of the possible mode of ATP hydrolysis inhibition by the identified P-glycoprotein inhibitors. The mode of hydrolysis of ATP by P-glycoprotein was investigated by measuring the maximal binding stoichiometry and binding affinity of an analog of ATP, SL-ATP, and by Electron Spin Resonance (ESR) spectroscopy, similar to in both the presence and absence of the identified inhibitors.
The high-field signal of the freely mobile, unbound SL-ATP is compared and is used to calculate the amount of ATP-analog bound to P-glycoprotein. Binding of SL-ATP in the absence of any P-glycoprotein inhibitor saturated at about 2 mol of SL-nucleotide bounds per mol of P-glycoprotein.
FIGS. 2A-2D are plots showing the effects of P-glycoprotein ATP hydrolysis inhibitors on nucleotide binding. Between 30 and 50 microM Pgp were incubated with 50 microM inhibitor compound. Increasing amounts of SL-ATP were added. The ESR signal of the free SL-ATP in the presence of P-glycoprotein and inhibitor was compared to that in the absence of P-glycoprotein. The graphs represent at least 3 individual studies each using 3 to 5 different P-glycoprotein preparations.

For data set [7], the target named is Normal Human MDR1 P-glycoprotein (Homo sapiens, UniProt P08183). Description: ATP hydrolysis by human P-gp assembled into membrane nanodiscs. In kind it is biochemical. The note with it: human MDR1 P-gp in nanodiscs. An excerpt:
To assess whether the observed discrepancies of compounds stimulating basal P-gp ATPase activity but not being transport substrates of the human pump in the cell culture assessments were due to the fact that these biochemical assays used a cysteineless variant of the mouse MDR3 P-glycoprotein, the experiments were repeated using normal human MDR1 P-gp. In order to stabilize the human protein for the activity assays, the protein was assembled into membrane nanodiscs as described herein.

For data set [8], the system named is DU145TXR. Description: Intrinsic toxicity, MTT survival. Type of data set: cell-based, human. How it is done:
(§1) Percent survival determined by MTT assay calculated relative to cells treated with equal volume DMSO vehicle and represent the mean±SEM from 2-4 separate studies, each study performed in triplicate wells.
(§2) The intrinsic in vitro toxicities of identified compounds were evaluated to determine their potential therapeutic window. This was assessed in a noncancerous cell line (HFL1) and the human prostate cancer cell lines DU145 and the MDR sub-line DU145TxR.

Data set [9] deals with P-gp overexpressing DU145TXR cells. Description: Calcein AM accumulation assay. In kind it is cell-based, human. How it is done:
Accumulation and cellular retention of calcein AM in P-gp overexpressing prostate cancer cells upon incubation with Group 1 SMU-29 variants. Calcein AM accumulation assays have been used by us previously to evaluate P-gp-substrate accumulation in real time in the presence or absence of P-gp inhibitors^28. For these assays, P-gp overexpressing DU145TXR cells were incubated with the respective inhibitors in the presence of the P-gp substrate, calcein AM. Inhibition of P-gp leads to cellular accumulation of calcein AM and to cleavage of its acetoxymethyl ester groups, resulting in the generation of the highly fluorescent compound, calcein. The anionic calcein is not a substrate of P-gp and remains in the cells. In these assays, the relative fluorescence of cellular calcein was measured over time and the results of these assays are shown in FIG. 10A.
The inventors determined if preferential partitioning of variants in the hydrophobic part of the cell membrane may keep them more distant from the putative allosteric site on P-gp which is located adjacent to the membrane in the cytoplasm, therefore potentially slowing the inhibitory effect of the compounds.

Another data set deals with DU145. Kind of data set: Intrinsic toxicity, MTT survival. In kind it is cell-based. Conditions: Homo sapiens, DU-145, 48 hours, ± standard error. The procedure:
as §1, §2

T1 sequence (P21447 whole entry C133A/C427A/C638A/C669A/C713A/C952A/C1070A/C1121A/C1223A): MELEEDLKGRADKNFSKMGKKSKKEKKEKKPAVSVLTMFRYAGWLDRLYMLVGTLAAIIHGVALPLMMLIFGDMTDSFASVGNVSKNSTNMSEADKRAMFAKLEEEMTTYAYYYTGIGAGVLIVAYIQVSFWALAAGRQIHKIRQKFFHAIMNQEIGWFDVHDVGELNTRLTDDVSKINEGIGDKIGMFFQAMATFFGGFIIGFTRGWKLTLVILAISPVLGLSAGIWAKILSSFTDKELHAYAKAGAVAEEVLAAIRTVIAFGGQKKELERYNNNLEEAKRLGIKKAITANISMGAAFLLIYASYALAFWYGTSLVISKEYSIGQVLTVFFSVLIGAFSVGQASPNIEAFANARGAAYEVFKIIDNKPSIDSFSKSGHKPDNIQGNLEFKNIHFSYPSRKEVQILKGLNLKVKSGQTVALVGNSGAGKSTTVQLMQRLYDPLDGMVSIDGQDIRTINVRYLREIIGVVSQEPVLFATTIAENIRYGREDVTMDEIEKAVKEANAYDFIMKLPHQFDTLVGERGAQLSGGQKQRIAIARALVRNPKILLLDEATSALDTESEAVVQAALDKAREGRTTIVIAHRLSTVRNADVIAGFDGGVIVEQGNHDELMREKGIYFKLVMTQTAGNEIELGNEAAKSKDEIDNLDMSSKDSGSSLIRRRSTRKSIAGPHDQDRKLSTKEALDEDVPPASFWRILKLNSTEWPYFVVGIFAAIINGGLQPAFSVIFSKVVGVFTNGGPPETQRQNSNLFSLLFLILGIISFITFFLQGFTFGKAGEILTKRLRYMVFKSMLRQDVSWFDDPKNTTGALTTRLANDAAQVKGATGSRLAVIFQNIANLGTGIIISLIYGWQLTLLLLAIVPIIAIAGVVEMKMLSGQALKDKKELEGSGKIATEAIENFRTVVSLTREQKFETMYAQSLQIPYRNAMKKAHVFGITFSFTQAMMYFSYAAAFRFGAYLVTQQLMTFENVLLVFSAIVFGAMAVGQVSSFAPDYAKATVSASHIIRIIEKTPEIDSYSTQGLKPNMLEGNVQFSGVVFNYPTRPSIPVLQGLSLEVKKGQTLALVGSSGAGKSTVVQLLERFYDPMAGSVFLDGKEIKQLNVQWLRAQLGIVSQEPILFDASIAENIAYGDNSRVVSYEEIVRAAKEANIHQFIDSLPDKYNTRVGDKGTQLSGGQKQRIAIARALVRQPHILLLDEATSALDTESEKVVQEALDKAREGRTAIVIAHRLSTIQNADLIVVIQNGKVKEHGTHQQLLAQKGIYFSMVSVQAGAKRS
Chain of Normal Human MDR1 P-glycoprotein (P08183 whole entry): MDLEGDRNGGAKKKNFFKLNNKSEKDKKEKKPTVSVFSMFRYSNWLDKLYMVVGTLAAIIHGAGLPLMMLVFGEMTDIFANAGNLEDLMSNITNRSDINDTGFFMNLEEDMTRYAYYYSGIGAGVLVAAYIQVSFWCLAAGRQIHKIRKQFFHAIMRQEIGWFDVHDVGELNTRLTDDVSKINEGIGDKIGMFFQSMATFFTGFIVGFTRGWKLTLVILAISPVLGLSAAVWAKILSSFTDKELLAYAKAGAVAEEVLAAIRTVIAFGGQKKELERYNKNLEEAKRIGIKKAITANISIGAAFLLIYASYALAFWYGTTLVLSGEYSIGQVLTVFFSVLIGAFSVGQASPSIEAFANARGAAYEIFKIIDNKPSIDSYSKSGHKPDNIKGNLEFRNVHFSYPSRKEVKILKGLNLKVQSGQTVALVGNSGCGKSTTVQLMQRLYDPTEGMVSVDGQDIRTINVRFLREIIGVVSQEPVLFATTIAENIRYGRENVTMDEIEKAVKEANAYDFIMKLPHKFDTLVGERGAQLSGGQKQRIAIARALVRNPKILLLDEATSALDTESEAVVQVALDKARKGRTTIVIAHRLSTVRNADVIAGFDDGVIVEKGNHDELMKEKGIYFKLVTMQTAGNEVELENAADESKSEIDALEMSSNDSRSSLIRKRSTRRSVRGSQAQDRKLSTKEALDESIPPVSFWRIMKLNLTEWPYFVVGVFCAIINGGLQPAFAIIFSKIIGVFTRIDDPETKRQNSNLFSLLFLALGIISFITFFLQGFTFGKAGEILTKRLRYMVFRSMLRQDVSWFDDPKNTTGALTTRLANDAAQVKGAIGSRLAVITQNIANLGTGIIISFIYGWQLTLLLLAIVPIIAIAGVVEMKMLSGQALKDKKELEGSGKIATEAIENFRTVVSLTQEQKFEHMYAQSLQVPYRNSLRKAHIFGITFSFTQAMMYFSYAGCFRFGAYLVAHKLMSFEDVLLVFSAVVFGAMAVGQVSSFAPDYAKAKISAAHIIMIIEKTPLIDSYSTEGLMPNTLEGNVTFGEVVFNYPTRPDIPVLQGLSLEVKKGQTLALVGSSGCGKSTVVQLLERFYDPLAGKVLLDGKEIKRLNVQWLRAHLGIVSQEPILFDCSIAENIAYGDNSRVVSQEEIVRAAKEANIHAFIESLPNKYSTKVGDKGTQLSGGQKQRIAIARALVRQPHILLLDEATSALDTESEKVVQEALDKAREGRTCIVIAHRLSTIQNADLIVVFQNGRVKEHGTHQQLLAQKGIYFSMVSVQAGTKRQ

For the compound `COC(=O)c1ccc(C(c2c(O)oc3ccccc3c2=O)c2c(O)oc3ccccc3c2=O)cc1` [SMU-19, methyl 4-[bis(2-hydroxy-4-oxochromen-3-yl)methyl]benzoate], the “Effect on paclitaxel sensitivity” value in the data set with DU145TXR [1] is given as “no effect”. Also, the “Effect on cell viability with paclitaxel” value with DU145TXR [2] was “no effect on cell viability”. For the same compound, in [3], the “Effect on SL-ANP binding” value is “reduce the number of binding sites”.

Turning to `Cc1cc(C)c(-c2cc(NC(=O)CSc3nnc4c(n3)[nH]c3ccccc34)n(-c3ccccc3)n2)cc1C` [SMU29-541, 2-((5H-[1,2,4]triazino[5,6-b]indol-3-yl)thio)-N-(1-phenyl-3-(2,4,5-trimethylphenyl)-1H-pyrazol-5-yl)acetamide], the “Fold vs PTX” value is 5 Fold with DU145TXR [4] (3 μM inhibitor, fold improvement of PTX sensitivity vs PTX alone); 101 Fold with DU145TXR [4] (5 μM inhibitor, vs PTX alone); 125 Fold with DU145TXR [4] (7 μM inhibitor, vs PTX alone); 125 Fold in the data set with DU145TXR [4] (10 μM inhibitor, vs PTX alone). The “Fold vs PTX ÷ 29” value with DU145TXR [4] (5 μM inhibitor) is listed as 9.2 Fold; with DU145TXR [4] (7 μM inhibitor) it was 3.4 Fold; with DU145TXR [4] (10 μM inhibitor), 3.4 Fold. In addition, the “Stimulated ATPase (% of DMSO)” value in data set [5] (in the presence of verapamil) is on record as 68 ± 7 % of DMSO; in [7] (stimulated), 66 ± 6 % of DMSO. For the same compound, the “Basal ATPase (% of DMSO)” value was 101 ± 12 % of DMSO in data set [5] (without added transport substrate) and 87 ± 9 % of DMSO in data set [7] (basal). Further, in data set [6], the “Maximum ATP binding mol SL-ANP bound/mol P-gp” value turned out to be 1.8 ± 0.1 mol SL-ANP bound/mol P-gp. In the data set with DU145TXR [8] (in the absence of chemotherapeutic), the “Toxicity in cell viability assays” value is given as “some toxicity”. Also, the entries for the “Cellular calcein accumulation relative to parental compound 29” value in [9] (after 6-hour pre-incubation) and in data set [9] (no preincubation) were “exceeded 29 significantly” and “performed relatively equally to 29”, respectively.

The IC50 is the concentration needed to halve the response being measured. Consider `COc1ccc(CCN(C)CCCC(C#N)(c2ccc(OC)c(OC)c2)C(C)C)cc1OC` (centres unmarked) [Verapamil, verapamil, reference compound], for which the IC50 in the data set with DU145 amounted to 74.5 ± 0.04 µM; in the data set on DU145TXR [8] (Homo sapiens, intrinsic toxicity, 48 hours, MTT, ± standard error), 147.5 ± 0.1 µM.
